The numbers were not newly measured in patent US6987099B2, “Uncomplexed cyclodextrin compositions for odor control” (The Procter & Gamble Company, priority 1997, dated 2006), which cites them from elsewhere.

Where a name gives a salt, the structure may show the parent alone.

As for `OCCOc1ccccc1` [2-phenoxyethanol], the solubility in water result is listed as “about 2.67%”.
Turning to `OCCc1ccccc1` [2-phenylethanol], the solubility in water result is “about 2%”.
`O=[N+]([O-])C1(Br)COCOC1` [Bronidox L, 5-bromo-5-nitro-1,3-dioxane]: the solubility in water result was “about 0.46%”.
Turning to `CC1(C)C(=O)N(CO)C(=O)N1CO` [DMDM hydantoin, 1,3-bis(hydroxymethyl)-5,5-dimethyl-2,4-imidazolidinedione], the solubility in water entry is given as “more than 50%”.
Consider `ClC=CC[N+]12CN3CN(CN(C3)C1)C2.[Cl-]` [Dowicil 200, 1-(3-Chlorallyl)-3,5,7-triaza-1-azoniaadamantane chloride], for which the “solubility in water” value was “freely soluble in water”.
Take `OCc1ccccc1` [benzyl alcohol]: the solubility in water entry is “about 4%”.
Take `CC(C)(O)C(Cl)(Cl)Cl` [chlorobutanol, 1,1,1-Trichloro-2-methylpropan-2-ol]: the solubility in water entry is “about 0.8%”.
Regarding `[H]/N=C(\N/C(=N/[H])NCCCCCCNC(=N)NC(=N)Nc1ccc(Cl)cc1)Nc1ccc(Cl)cc1` [diacetate salt, 1,1′-hexamethylene bis(5-(p-chlorophenyl)biguanide), reference compound], the solubility in water entry was “about 1.8%”.
`[H]/N=C(\N/C(=N/[H])NCCCCCCNC(=N)NC(=N)Nc1ccc(Cl)cc1)Nc1ccc(Cl)cc1` [digluconate salt, 1,1′-hexamethylene bis(5-(p-chlorophenyl)biguanide), reference compound]: the solubility in water entry is “about 70%”.
For the compound `[Na+].[O-][n+]1ccccc1[S-]` [sodium pyrithione], the solubility in water entry is on record as “about 50%”.
